The numbers were not newly measured in article PMC8146789, “20-Hydroxyecdysone, from Plant Extracts to Clinical Use: Therapeutic Potential for the Treatment of Neuromuscular, Cardio-Metabolic and Respiratory Diseases” (Biomedicines, 2021), which cites them from elsewhere.

Where two headings read alike, the source gives them in different places.

Data set [1] relates to myostatin gene expression in C2C12 cells. The following applies: C2C12 myotubes, ref [103], cited from earlier work.
Data set [2] has as its system ERα. More on the design: method as in PMID 24974955. The following applies: ref [54]; cited from earlier work.
On the set-up of data set [3]: method as in PMID 31190566. The settings on record: high fructose fed gerbils; ref [61]; cited from earlier work.
Details of data set [4]: method as in PMID 21439380, PMID 33819630. The following applies: mice, oral; ref [126],[127]; cited from earlier work.
For data set [5] the following is noted: 30 days, ref [158], cited from earlier work.
Details of data set [6]: method as in PMID 15559639. The following applies: hepatitis B, 5 mg b.i.d., 30 days; ref [159]; cited from earlier work.
Data set [7] concerns Hymenolepiasis. More on the design: method as in PMID 22536744. The following applies: 5 mg 3×/day, 2 weeks; ref [169]; cited from earlier work.
On the set-up of data set [8]: method as in ref [177] = [177]; 177. Dustmukhamedova D.K.H. Kamilovz A.T. The characteristic of energy metabolism disorders and its correction in children with celiac disease Am. J. Med. Medic. Sci. 2020 10 780 783. The following applies: children 3–14, 2.5 mg/kg/day, 14 days; ref [177]; cited from earlier work.
The conditions of data set [9]: in vivo; cited from earlier work.

In the case of `CC(C)(O)CC[C@@H](O)[C@](C)(O)[C@H]1CC[C@@]2(O)C3=CC(=O)[C@@H]4C[C@@H](O)[C@@H](O)C[C@]4(C)[C@H]3CC[C@]12C` [20E, 2β,3β,14α,20R,22R,25-hexahydroxy-5β-cholest-7-en-6-one], the “concentration with significant difference from control in myostatin gene expression” value in data set [1] (0.001 to 10 μM tested) was 1 to 10 µM. Further, the myostatin gene expression result in data set [1] (6 h treatment) is “mimics the effect of IGF-1 in a dose-dependent manner”. Moreover, the “activation of ERE reporter gene” value in data set [2] is reported as “could be activated dose dependently”. In addition, in data set [3], the effect on adiposity result is “efficient”. For the same molecule, the “time at which 20E starts to reach the large intestine” value in data set [4] is “ca. 30 min”. In addition, the sexual function output result in [5] (5 mg 3×/day, age 40–60 M) is “Improvement of sexual function during recovery from myocardial infarction”. The sexual function output result in data set [5] (5 mg, 2×/day) was “Improved sperm quality and copulative function in patients with disturbed spermatogenesis as a complication of urologic diseases”. The liver state result in [6] is “In case of hepatitis B, improvement of liver state”. In data set [7], the parasitological efficacy was 36.4% and the symptoms result was “Reduction in symptoms”. Further, in [8], the “output of celiac disease study” value was “Reduction in symptoms Improvement of energy metabolism”. Besides, the “time of plasma titre maximum” value in data set [9] is recorded as “ca. 30 min”.
